According to patent US11147785B2, “Modified free amino acid formulation and uses” (priority 2020, dated 2021):

Assays:
[1] = Topical application without propylene glycol; type: in vivo
[2] = tested on: hepatic and intestinal glucuronidation; conditions: concomitant administration; more in humans than rats; cited from earlier work

Compound	Efficacy in topical applications [1]	Increase of bioavailability (serum concentration and extent of intestinal absorption) [2]
N[C@@H](CCC(=O)O)C(=O)[O-].O.[Na+] [MSGLM, Monosodium L-Glutamate Monohydrate]	ineffective	–
O=C(/C=C/C=C/c1ccc2c(c1)OCO2)N1CCCCC1 [Piperine]	–	up to 20 fold
